The results in this text go back to ChEMBL document CHEMBL1123961 (J Med Chem, 1988).

Experiment [1] addresses Serotonin receptor 2a and 2c (5HT2A and 5HT2C) (Rattus norvegicus) (UniProt P08909+P14842).
Description: Hill coefficient of compound was determined
The target in experiment [2] is T1, Serotonin receptor 2a and 2c (5HT2A and 5HT2C) (Rattus norvegicus, UniProt P08909+P14842). Nature of the experiment: Binding affinity at 5-hydroxytryptamine 2 receptor determined using [125I]- DOI as radioligand in rat frontal cortex. Type of experiment: tissue-based.
Experiment [3] has as its target T1, Serotonin receptor 2a and 2c (5HT2A and 5HT2C). Nature of the experiment: Binding affinity at [3H]DOB labeled sites of 5-hydroxytryptamine 2 receptor determined using [125I]- DOI as radioligand in rat frontal cortex. The class given is tissue-based.
For experiment [4] the target is unchanged. The experiment in a line: Binding affinity at [3H]KET labeled sites of 5-hydroxytryptamine 2 receptor determined using [125I]- DOI as radioligand in rat frontal cortex. Type of experiment: tissue-based.
The target is the same in experiment [5]. The experiment in a line: Binding affinity at [3H]DOB labeled sites of 5-hydroxytryptamine 2 receptor was determined using [125I]- DOI as radioligand in rat frontal cortex. Type of experiment: tissue-based.
The target is the same in experiment [6]. The experiment in a line: Binding affinity at [3H]KET labeled sites of 5-hydroxytryptamine 2 receptor was determined using [125I]- DOI as radioligand in rat frontal cortex. The class given is tissue-based.

Chain of Serotonin receptor 2a and 2c (5HT2A and 5HT2C) (Rattus norvegicus) (P08909 whole entry, looked up): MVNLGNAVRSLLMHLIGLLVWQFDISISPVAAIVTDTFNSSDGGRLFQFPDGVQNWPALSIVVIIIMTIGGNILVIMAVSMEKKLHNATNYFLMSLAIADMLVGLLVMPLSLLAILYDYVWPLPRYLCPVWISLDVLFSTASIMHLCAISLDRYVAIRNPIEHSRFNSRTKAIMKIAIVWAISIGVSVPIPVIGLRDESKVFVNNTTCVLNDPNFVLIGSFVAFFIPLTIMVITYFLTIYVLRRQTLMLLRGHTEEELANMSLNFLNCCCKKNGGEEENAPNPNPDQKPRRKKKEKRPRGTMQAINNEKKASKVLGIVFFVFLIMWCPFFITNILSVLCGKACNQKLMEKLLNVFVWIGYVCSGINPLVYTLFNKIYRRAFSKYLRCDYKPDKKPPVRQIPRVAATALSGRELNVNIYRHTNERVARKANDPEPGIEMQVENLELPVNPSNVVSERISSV
Chain of Serotonin receptor 2a and 2c (5HT2A and 5HT2C) (Rattus norvegicus) (P14842 whole entry, looked up): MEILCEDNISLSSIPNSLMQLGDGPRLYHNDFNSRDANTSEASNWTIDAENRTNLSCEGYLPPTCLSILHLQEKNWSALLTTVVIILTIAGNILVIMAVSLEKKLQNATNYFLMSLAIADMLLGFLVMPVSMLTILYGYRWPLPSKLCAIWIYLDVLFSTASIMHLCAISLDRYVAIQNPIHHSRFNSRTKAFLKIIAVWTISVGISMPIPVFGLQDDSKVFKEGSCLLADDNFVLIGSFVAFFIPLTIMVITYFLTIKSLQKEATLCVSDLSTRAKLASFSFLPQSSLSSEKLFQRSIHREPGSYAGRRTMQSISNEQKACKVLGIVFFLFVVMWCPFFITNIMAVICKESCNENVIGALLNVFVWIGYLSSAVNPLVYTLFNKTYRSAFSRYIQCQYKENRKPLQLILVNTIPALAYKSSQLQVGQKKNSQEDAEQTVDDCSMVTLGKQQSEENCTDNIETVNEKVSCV

With `NCCc1c[nH]c2ccc(O)cc12`, the nH in experiment [1] was 0.9.
Regarding `COc1cc(CC(C)N)c(OC)cc1I` (racemic), the inhibition constant (Ki) (commonly a dissociation constant, usually derived from enzyme kinetics or from competition with a known ligand) is reported as 2.8 nM in experiment [2], 0.7 nM in experiment [3] and 20 nM in experiment [4]. In experiment [1], this molecule gave a nH of 0.89.
`O=C(CCCN1CCC2(CC1)C(=O)NCN2c1ccccc1)c1ccc(F)cc1` displayed a nH in experiment [1] of 0.75.
Same read-out and setting: to `COc1cc(C[C@@H](C)N)c(OC)cc1Br` belongs 0.84.
The same measure, in the same setting: to `O=C(c1ccc(F)cc1)C1CCN(CCn2c(=O)[nH]c3ccccc3c2=O)CC1` belongs 0.87.
For the molecule `CN(C)CCCSc1ccccc1NC(=O)/C=C/c1ccccc1` [CINANSERIN], the inhibition constant Ki in experiment [5] worked out at 3.8 nM; in experiment [2], 5 nM; in experiment [6], 4.5 nM. For the same molecule, in experiment [1], the nH worked out at 0.76.
